Results on 13 molecules are retold here after patent US9006255B2, “Quinazoline derivatives” (Merck Patent GmbH, priority 2010, dated 2015).

In one assay the target is DNA-PK protein complex (Homo sapiens, UniProt P78527). The assay can be described thus: DNA-PK kinase assay (FlashPlate, 33P-ATP). Type of assay: biochemical. As to conditions: biotin-DNA-PK peptide substrate, 5 μM ATP, 90 minutes at room temperature. As for the experimental part: Description of the Method for the Testing of DNA-PK Inhibitors
The kinase assay is carried out in […] microtitre FlashPlates®, coated with streptavidin. 1.5 μg of the DNA-PK protein complex and […] of biotinylated substrate, for example PESQEAFADLWKK biotin-NH2 (“biotin-DNA-PK peptide”) in a total volume of 36.5 μl (34.25 mM Hepes/KOH, 7.85 mM Tris-HCl, 68.5 mM KCl, 5 μM ATP, 6.85 mM MgCl2, 0.5 mM EDTA, 0.14 mM EGTA, 0.69 mM DTT, pH 7.4), are incubated at room temperature for 90 minutes with or without test substance in a well containing 500 ng of DNA from calf thymus, 0.1 μCi of 33P-ATP and 1.8% of DMSO. The reaction is stopped by addition of 50 μl/well of 200 mM EDTA. After incubation for 30 minutes, the liquids are removed at room temperature. Each well is washed three times with 100 μl of 0.9% NaCl solution. Non-specific reaction (blank) is determined using a proprietary kinase inhibitor (10 μM). The radioactivity is measured by means of a Topcount. IC50 values calculated in RS1. Literature: Molecular Cancer Therapeutics 2003, 1257-1264; DNA-dependent protein kinase inhibitors as drug candidates for the treatment of cancer; A. Kashishian, H. Douangpanya, D. Clark, S. T. Schlachter, C. Todd Eary, J. G. Schiro, H. Huang, L. E. Burgess, E. A. Kesicki, and J. Halbrook.

The test system of the next assay is PI3K. The assay can be described thus: Cellular testing of PI3K inhibitors: P-S473-PKB Luminex assay in PC3 cells. Type of assay: cell-based. The note with it: phosphorylation of PKB at Serin 473, 30 min incubation, serum-free. The procedure:
Description of the Method for the Cellular Testing of PI3K Inhibitors The measure used for the cellular PI3K activity is the PI3K-dependent phosphorylation of PKB at Serin 473. The cellular assay for determination of the P-S473-PKB level is carried out as a Luminex assay in 96-well format in PC3 cells. […] PC3 cells are sown out with 20,000 cells per well in 100 μl medium (45% RPMI1460/45% Ham's F12/10% FCS) and incubated on the following day for 30 min with a serial dilution of the test substance (7 concentrations) under serum-free conditions. The cells are subsequently lysed using 90 μl of lysis buffer (20 mM Tris/HCl pH 8.0, 150 mM NaCl, 1% NP40, 10% glycerol, 1% phosphatase inhibitor I, 1% phosphatase inhibitor II, 0.1% protease inhibitor cocktail III, 0.01% benzonase) per well, and the lysates are separated off from insoluble cell constituents by means of centrifugation through a 96-well filter plate (0.65 μm). The lysates are incubated overnight at 4° C. with shaking with Luminex beads to which an anti-total PKB antibody is coupled. The detection is carried out on the following day by addition of a P-S473-PKB antibody and a species-specific PE-labelled secondary antibody. The detection of P-S473-PKB is carried out by measurement in a Luminex100 instrument by determination of 100 events per cavity in a measurement time of 60 sec. As pharmacological blank, the signals obtained from cells which have been treated with 3 μM wortmannin are subtracted from all other preparations. The control value used for maximum phosphorylation of PKB at S473 are the signals from cells which have been treated only with the solvent (0.3% DMSO). The values of the preparations treated with test substance are calculated from this as percent of control, and IC50 values are determined by means of RS1.

For `c1ccc2c(c1)CCN2c1ncnc2ccc(-c3cnc4[nH]ccc4c3)cc12` [Compound A1, 4-(2,3-dihydroindol-1-yl)-6-(1H-pyrrolo[2,3-b]pyridin-5-yl)quinazoline], the IC50 against DNA-PK protein complex is 1 to 100 nM; in the assay with PI3K it was 100 to 10000 nM.
For `c1ccc2c(c1)CN(c1ncnc3ccc(-c4cnc5[nH]ccc5c4)cc13)C2` [Compound A2, 4-(1,3-dihydroisoindol-2-yl)-6-(1H-pyrrolo[2,3-b]pyridin-5-yl)quinazoline] the same measures were 1 to 100 nM and 100 to 10000 nM.
Consider `c1ccc2c(c1)CCCN2c1ncnc2ccc(-c3cnc4[nH]ccc4c3)cc12` [Compound A3, 4-(3,4-dihydro-2H-quinolin-1-yl)-6-(1H-pyrrolo[2,3-b]pyridin-5-yl)quinazoline], for which the half-inhibitory concentration (IC50) at DNA-PK protein complex is 1 to 100 nM; with PI3K, 100 to 10000 nM.
The corresponding values for `Cc1nc2cc(-c3ccc4ncnc(N5CCc6ccccc6C5)c4c3)cnc2[nH]1` [Compound A4, 4-(3,4-dihydro-1H-isoquinolin-2-yl)-6-(2-methyl-3H-imidazo[4,5-b]pyridin-6-yl)quinazoline] are 1 to 100 nM and 1 to 100 nM.
The corresponding values for `Cc1nc2cc(-c3ccc4ncnc(N5CCCc6ccccc65)c4c3)cnc2[nH]1` [Compound A5, 4-(3,4-dihydro-2H-quinolin-1-yl)-6-(2-methyl-3H-imidazo-[4,5-b]pyridin-6-yl)quinazoline] are 1 to 100 nM and 100 to 10000 nM.
`c1ccc2c(c1)CCN(c1ncnc3ccc(-c4cnc5[nH]ccc5c4)nc13)C2` [Compound A6, 4-(3,4-dihydro-1H-isoquinolin-2-yl)-6-(1H-pyrrolo[2,3-b]pyridin-5-yl)pyrido[3,2-d]pyrimidine]: the IC50 was in the range of 1 to 100 nM at DNA-PK protein complex and 100 to 10000 nM with PI3K.
The molecule `COc1cc2c(cc1OC)CN(c1ncnc3ccc(-c4cnc5[nH]ccc5c4)nc13)CC2` [Compound A7, 4-(6,7-dimethoxy-3,4-dihydro-1H-isoquinolin-2-yl)-6-(1H-pyrrolo[2,3-b]pyridin-5-yl)pyrido[3,2-d]pyrimidine] gave an IC50 against DNA-PK protein complex of 1 to 100 nM.
As for `Cc1nc2cc(-c3ccc4ncnc(N5CCc6ccccc6C5)c4n3)cnc2[nH]1` [Compound A8, 4-(3,4-dihydro-1H-isoquinolin-2-yl)-6-(2-methyl-3H-imidazo[4,5-b]pyridin-6-yl)-pyrido[3,2-d]pyrimidine], the IC50 against DNA-PK protein complex and in the assay on PI3K was 1 to 100 nM throughout.
With `COc1cc2c(cc1OC)CN(c1ncnc3ccc(-c4cnc5[nH]c(C)nc5c4)nc13)CC2` [Compound A9, 4-(6,7-dimethoxy-3,4-dihydro-1H-isoquinolin-2-yl)-6-(2-methyl-3H-imidazo[4,5-b]pyridin-6-yl)pyrido[3,2-d]pyrimidine], the IC50 on DNA-PK protein complex and in the assay with PI3K was 1 to 100 nM each time.
Consider `CCc1nc2cc(-c3ccc4ncnc(N5CCc6ccccc6C5)c4c3)cnc2[nH]1` [Compound A10, 4-(3,4-dihydro-1H-isoquinolin-2-yl)-6-(2-ethyl-3H-imidazo[4,5-b]pyridin-6-yl)quinazoline], for which the half-maximal inhibitory concentration (IC50) against DNA-PK protein complex and in the assay on PI3K was 1 to 100 nM throughout.
As for `COc1ccc2c(c1)CN(c1ncnc3ccc(-c4cnc5[nH]c(C)nc5c4)cc13)CC2` [Compound A11, 4-(7-methoxy-3,4-dihydro-1H-isoquinolin-2-yl)-6-(2-methyl-3H-imidazo[4,5-b]pyridin-6-yl)quinazoline], the 50% inhibitory concentration (IC50) at DNA-PK protein complex and in the assay on PI3K was 1 to 100 nM throughout.
For the molecule `Cc1nc2cc(-c3ccc4ncnc(N5CCOc6ccccc65)c4c3)cnc2[nH]1` [Compound A12, 4-[6-(2-methyl-3H-imidazo[4,5-b]pyridin-6-yl)quinazolin-4-yl]-3,4-dihydro-2H-benzo-1,4-oxazine], the IC50 against DNA-PK protein complex fell in the range of 1 to 100 nM; with PI3K, 100 to 10000 nM.
The corresponding values for `Cc1nc2cc(-c3ccc4ncnc(N5CCC(=O)c6ccccc65)c4c3)cnc2[nH]1` [Compound A13, 1-[6-(2-methyl-3H-imidazo[4,5-b]pyridin-6-yl)quinazolin-4-yl]-2,3-dihydro-1H-quinolin-4-one] are 1 to 100 nM and 100 to 10000 nM.

The term IC50 denotes the point on the concentration scale where inhibition reaches its midpoint. Higher therefore signals weaker potency in that assay.
